# Source: article PMC5933457, “Probing biological activity through structural modelling of ligand-receptor interactions of 2,4-disubstituted thiazole retinoids” (Bioorganic & Medicinal Chemistry, 2018)
# How the values were obtained:
# [1] = system: TERA2.cl.SP12 embryonal carcinoma stem cells; test: Flow cytometry of cell-surface differentiation markers SSEA-3, TRA-1–60, A2B5; type: cell-based, human; conditions: 10 μM retinoid, 7 days, compared to ATRA and control cultures, Fig. 7A
# Source text: First, we examined neuronal differentiation in pluripotent TERA2.cl.SP12 human embryonal carcinoma stem cells in response to retinoid treatment. TERA2.cl.SP12 cells have been used in previous studies, [29] to test the ability of synthetic retinoids to induce differentiation along a neuronal or an alternative epithelial pathway at long in vitro timescales of up to three weeks. […] Since the parent carboxylic acid (GZ24) had little activity, the response to GZ22 was a real effect of the ester rather than a result of hydrolysis of the parent ester to the carboxylic acid.
# The expression of specific cell surface protein markers (SSEA-3, TRA-1–60, A2B5) on TERA2.cl.SP12 was analyzed using flow cytometry as described previously.[53] Briefly, TERA2.cl.SP12 cells, 2 × 10^5 per 25 cm^2 flask, were seeded 12–24 h before treatment with 10 μM retinoid for 7 days. The primary antibodies used were SSEA-3 (diluted 1:10, University of Iowa Hybridoma Bank), TRA-1–60 (diluted 1:50, Abcam) and neural cell marker A2B5 (diluted 1:40, R&D Systems). Labeled cells were analyzed in a Guave EasyCyte Plus System (Millipore) flow cytometer and thresholds determining the numbers of positively expressing cells were set against the negative control antibody, P3X.
# [2] = system: TERA2.cl.SP12 cells; test: Immunocytochemistry for A2B5, TUJ-1 and cytokeratin 8; type: cell-based, human; conditions: for expression of epithelial phenotype marker cytokeratin 8: 10 μM, 1, 2 and 3 weeks, Fig. 7D; for neuronal differentiation by TUJ-1 staining: up to 3 weeks
# Experimental: Third, we carried out assessment of protein expression using immunofluorescent techniques on cultures of TERA2.cl.SP12 cells treated with retinoids.
# TERA2.cl.SP12 cells were seeded at 5000 cells per well on poly-D-lysine (25 μg/ml) coated cover slips in 6-well plates. Cells were treated with each retinoid at a concentration of 10 μM for 7, 14 and 21 days (the media was changed every 3–4 days). Cells were also treated with 1% DMSO for the same time periods as a […] control. At the end of the treatment period, cells were fixed (4% para-formaldehyde in PBS for 30 min at room temperature (RT) and rinsed with PBS. One set of experiments was used for the cell surface marker A2B5 (diluted 1:100, R&D systems), and the other set was prepared for intracellular staining using 1% Triton-X-100 (Sigma Aldrich) in PBS as a permeabilizing agent for 10 min at RT. Non-specific labeling was blocked by incubation with a solution of 1% goat serum (Sigma Aldrich) containing 0.2% Tween-20 (Sigma Aldrich) in PBS for one hour at RT. The primary antibodies β-III tubulin antibody (TUJ-1) (1:200, Affymetrix eBioscience) and CK-8 antibody (1:500, Affymetrix eBioscience) were diluted in blocking solution and incubated with the cells for 1 h at RT. After washing three times for 15 min with PBS, cells were incubated for 1 h in the dark with anti-mouse FITC-conjugated secondary antibody IgM (1:128, Sigma Aldrich) for A2B5 staining, and anti-mouse Alexafluor 488 IgG (1:600, Invitrogen) for TUJ-1 and CK-8 staining. Hoechst 33,342 nuclear staining dye (1:1000, Molecular Probes) was dissolved in blocking solution after the secondary antibody staining step for nuclear staining.
# Immunocytofluorescent images of fixed cells were visualized using a Leica SP5 confocal microscope. Scale bars are shown at 25 μm.
# [3] = system: TERA2.cl.SP12 stem cells; test: Real-time PCR for neuronal markers NeuroD1 and PAX6; type: cell-based, human; conditions: 10 μM, Fig. 7B; for induction of PAX6 expression, rank order: up to 7 days
# Experimental: Second, NeuroD1 and PAX6 are retinoid-induced transcription factors involved in regulating neuronal differentiation,[49], [50] and are expressed in neurons derived from TERA2.cl.SP12 stem cells.
# (§1) Real time PCR was carried out immediately after treatment on both cell line lysates with 0.25% trypsin–EDTA. TERA-2.cl.SP12 cells were seeded at a density of 1 × 10^6 cells per 25 cm^2 flask, 12–24 h before treatment. […] SH-SY5Y cells were seeded at a density of 1 × 10^6 cells per 25 cm^2 flask, 12–24 h before treatment. […] Commercial RNA extraction kits (Qiagen) and reverse transcription (Applied Biosystems) kits were purchased and procedures used according to the manufacturer instructions. Real time PCR was performed using the TaqMan® Universal PCR Master Mix (Life technologies) and TaqMan® gene expression system (Applied Biosystems) based on probe sets to the specific genes to be analysed. Genecodes used are as follows: RARβ (Hs00233407_m1), CYP26-A1 (Hs00175627_m1), RARα (Hs00940448_g1), RARγ (Hs01559234_m1), PAX-6 (Hs01088112_m1), NeuroD1 (Hs01922995_s1). GADPH (Hs02758991_g1) and ACTB (Hs99999903_m1) were used as internal control genes for TERA-2.cl.SP12 and SH-SY5Y, respectively.
# [4] = system: SH-SY5Y human neuroblastoma cells; test: Retinoid-induced gene expression (RARα, RARβ, RARγ, CYP26A1) by real-time PCR; type: cell-based; conditions: for induction of RARα and RARγ expression: 10 μM retinoid, over a 12 h period, Fig. 8A; for induction of RARβ expression, rank order / induction of CYP26A1 expression, rank order: dose-response 1 nM to 1 μM, 8 h treatment, Fig. 8B; for induction of RARβ expression, rank order: all doses; for induction of CYP26A1 expression, rank order: doses <1 μM
# Experimental: As an additional assay of biological activity, short-term changes in expression of four genes in SH-SY5Y cells was employed; a neuroblastoma-derived lineage that undergoes neuronal differentiation in response to retinoid treatment. The four genes assayed, RARα, RARβ, RARγ and CYP26A, have RAREs associated with their promoters and may be directly regulated by retinoids.[51], [52]
# as §1
# [5] = system: RARβ; conditions: RARβ2 isoform; cited from earlier work
Compound,"proportion of cells expressing differentiation markers SSEA-3, TRA-1–60, A2B5 [1]",expression of epithelial phenotype marker cytokeratin 8 [2],"neuronal differentiation by TUJ-1 staining ([2]; 10 μM, Fig. 7C)","NeuroD1 mRNA expression, rank order ([3]; after 5 days)","NeuroD1 mRNA expression, rank order ([3]; after 7 days)","induction of PAX6 expression, rank order [3]","expression of neuronal differentiation marker A2B5 (immunofluorescence) ([2]; 10 μM, after 7 days, Fig. 7C)",induction of RARα and RARγ expression [4],"induction of RARβ expression, rank order [4]","induction of CYP26A1 expression, rank order [4]",time-course of RARβ and CYP26A1 induction ([4]; 10 μM retinoid treatment),RAR-type selectivity [5]
CCOC(=O)c1ccc(-c2nc(-c3ccccc3)c(C)s2)cc1 [GZ22],Intermediate responses,more effective,very low activity,–,–,–,–,–,–,–,–,–
Cc1sc(-c2ccc(C(=O)O)cc2)nc1-c1ccc2c(c1)C(C)(C)CCC2(C)C [GZ25],"most potent, even compared to ATRA",not detectable,most effective,GZ25 > GZ18 > ATRA,ATRA > GZ25,GZ25 ≫ ATRA > GZ18,induced,lower levels of induction,GZ25 ≫ ATRA > GZ18,GZ25 > GZ18 > ATRA,–,–
CCOCCOc1nc(-c2ccc(C(=O)O)cc2)sc1C [GZ18],very little activity,more effective,very low activity,GZ25 > GZ18 > ATRA,–,GZ25 ≫ ATRA > GZ18,–,lower levels of induction,GZ25 ≫ ATRA > GZ18,GZ25 > GZ18 > ATRA,less active in comparison to either GZ25 or ATRA,RARβ2-specific retinoid
